Assay results taken from patent publication US6913760B2, “Drug delivery composition” (New England Medical Hospitals, Inc., priority 2001, dated 2005).
Several values for one entry are separate records, joined by “and”; a condition that tells them apart may be missing. Identical values can stand only once. Marks after values point to notes of the source that are not given here.

Experiments:
[1] = In vitro release of BP or HM from PLGA 50:50 rods; format: physicochemical; conditions: BP rods of first batch
[2] = rat
rats [3] = assay: Paw withdrawal test after intrathecal implantation of PLGA rods; format: in vivo; conditions: for % MPE, paw withdrawal test, Average: average of 6 rats
rats [4] = assay: Tail flick test after intrathecal implantation of PLGA rods; format: in vivo; conditions: for % MPE, tail flick test, Average: average of 6 rats
[5] = Drug release studies of PLGA 85:15 rods (Example 2); format: physicochemical
rats [6] = assay: Anesthesia after intrathecal polymeric implants, all sites tested (Example 2); format: in vivo; conditions: intrathecal rods
[7] = test system: rats with sciatic nerve ligation; assay: Paw withdrawal threshold after sciatic nerve ligation, rods placed parallel to the nerve; format: in vivo, Sprague-Dawley rats
[8] = trapezoidal method, individual rats, listed as BP
[9] = trapezoidal method, mean of 6 rats

release from rods retrieved after termination of in vivo test [2]: suppressed release
relative rate of drug release [5]: released faster than the other two drugs
release order [5]: almost zero order
SMILES: CCCCN1CCCCC1C(=O)Nc1c(C)cccc1C (stereo not shown) [Bupivacaine, bupivacaine]
in vitro release behavior [1]: zero order release pattern with two different rates
% MPE, paw withdrawal test, Average (rats [3]; 2h, L): 26.10 % MPE
% MPE, paw withdrawal test, Average (rats [3]; 2h, R): 27.87 % MPE
% MPE, paw withdrawal test (rats [3]; 2h, left (L) hind paw, individual rats): 24.92 % MPE and 36.09 % MPE and 19.26 % MPE and 23.67 % MPE and 15.95 % MPE and 36.73 % MPE
% MPE, paw withdrawal test (rats [3]; 2h, right (R) hind paw, individual rats): 19.06 % MPE and 39.35 % MPE and 20.77 % MPE and 27 % MPE and 22.43 % MPE and 38.63 % MPE
% MPE, paw withdrawal test, Average (rats [3]; 4h, L): 26.48 % MPE
% MPE, paw withdrawal test (rats [3]; 4h, L, individual rats): 27.69 % MPE and 55.64 % MPE and 11.48 % MPE and 14.67 % MPE and 37.74 % MPE and 11.64 % MPE
% MPE, paw withdrawal test, Average (rats [3]; 4h, R): 29.68 % MPE
% MPE, paw withdrawal test (rats [3]; 4h, R, individual rats): 38.12 % MPE and 58.84 % MPE and 13.08 % MPE and 12 % MPE and 44.11 % MPE and 11.91 % MPE
% MPE, paw withdrawal test, Average (rats [3]; D1, L): 23.61 % MPE
% MPE, paw withdrawal test (rats [3]; D1, L, individual rats): 33.85 % MPE and 35.71 % MPE and 11.11 % MPE and 39 % MPE and 13.62 % MPE and 8.36 % MPE
% MPE, paw withdrawal test, Average (rats [3]; D1, R): 22.68 % MPE
% MPE, paw withdrawal test (rats [3]; D1, R, individual rats): 30.62 % MPE and 43.32 % MPE and 11.54 % MPE and 32 % MPE and 11.03 % MPE and 7.58 % MPE
% MPE, paw withdrawal test, Average (rats [3]; D2, L): 26.91 % MPE
% MPE, paw withdrawal test (rats [3]; D2, L, individual rats): 28.92 % MPE and 42.86 % MPE and 18.15 % MPE and 29 % MPE and 33.07 % MPE and 9.45 % MPE
% MPE, paw withdrawal test, Average (rats [3]; D2, R): 27.13 % MPE
% MPE, paw withdrawal test (rats [3]; D2, R, individual rats): 28.12 % MPE and 44.76 % MPE and 15.77 % MPE and 28.33 % MPE and 34.60 % MPE and 11.19 % MPE
% MPE, paw withdrawal test, Average (rats [3]; D3, L): 15.06 % MPE
% MPE, paw withdrawal test (rats [3]; D3, L, individual rats): 20.37 % MPE and 7.33 % MPE and 9.73 % MPE and 5.09 % MPE and 16.62 % MPE and 31.20 % MPE
% MPE, paw withdrawal test, Average (rats [3]; D3, R): 15.70 % MPE
% MPE, paw withdrawal test (rats [3]; D3, R, individual rats): 17.31 % MPE and 4.67 % MPE and 12.55 % MPE and 0.36 % MPE and 24.69 % MPE and 34.66 % MPE
% MPE, paw withdrawal test, Average (rats [3]; D4, L): 9.72 % MPE
% MPE, paw withdrawal test (rats [3]; D4, L, individual rats): 7.78 % MPE and 13.67 % MPE and 1.55 % MPE and 0 % MPE and 25.54 % MPE and 9.77 % MPE
% MPE, paw withdrawal test, Average (rats [3]; D4, R): 9.56 % MPE
% MPE, paw withdrawal test (rats [3]; D4, R, individual rats): 8.46 % MPE and 15.67 % MPE and 0.76 % MPE and 1.08 % MPE and 20.94 % MPE and 10.47 % MPE
% MPE, paw withdrawal test, Average (rats [3]; D5, L): 6.49 % MPE
% MPE, paw withdrawal test (rats [3]; D5, L, individual rats): 0.74 % MPE and 1 % MPE and 1.94 % MPE and 1.45 % MPE and 18.77 % MPE and 15.04 % MPE
% MPE, paw withdrawal test, Average (rats [3]; D5, R): 6.55 % MPE
% MPE, paw withdrawal test (rats [3]; D5, R, individual rats): 0.38 % MPE and 3 % MPE and 2.66 % MPE and 1.44 % MPE and 18.44 % MPE and 13.36 % MPE
% MPE, paw withdrawal test, Average (rats [3]; D6, L): 4.88 % MPE
% MPE, paw withdrawal test (rats [3]; D6, L, individual rats): 0.37 % MPE and 7 % MPE and 0.39 % MPE and −1.82 % MPE and 10.15 % MPE and 13.16 % MPE
% MPE, paw withdrawal test, Average (rats [3]; D6, R): 7.35 % MPE
% MPE, paw withdrawal test (rats [3]; D6, R, individual rats): 0.77 % MPE and 11 % MPE and 4.94 % MPE and 2.89 % MPE and 9.69 % MPE and 14.80 % MPE
Area under the curve (AUC), paw withdrawal test (left side) (rats [3]; [8]): 165.34 and 63.50 and 98.08 and 77.02 and 29.59 and 139.80
Area under the curve (AUC), paw withdrawal test (right side) (rats [3]; [8]): 179.14 and 59.77 and 93.21 and 84.38 and 29.51 and 143.50
Area under the curve (AUC), paw withdrawal test (left side), Mean (rats [3]; [9]): 95.55 * #
Area under the curve (AUC), paw withdrawal test (right side), Mean (rats [3]; [9]): 98.25 * #
% MPE, tail flick test, Average (rats [4]; 2h): 40.52 % MPE
% MPE, tail flick test (rats [4]; 2h after intrathecal implantation of PLGA rod, individual rats): 31.19 % MPE and 41.43 % MPE and 63.08 % MPE and 30.89 % MPE and 23.85 % MPE and 52.69 % MPE
% MPE, tail flick test, Average (rats [4]; 4h): 39.06 % MPE
% MPE, tail flick test (rats [4]; 4h, individual rats): 24.2268 % MPE and 38.87 % MPE and 40.26 % MPE and 44.7644 % MPE and 11.79 % MPE and 74.46 % MPE
Area under the curve (AUC), tail flick test (rats [4]; % MPE versus time in days, trapezoidal method, individual rats, listed as BP): 130.77 and 82.59 and 112.23 and 137.33 and 90.32 and 72.88
Area under the curve (AUC), tail flick test, Mean (rats [4]; % MPE versus time in days, trapezoidal method, mean of 6 rats): 104.35 * #
% MPE, tail flick test, Average (rats [4]; D1): 23.1672 % MPE
% MPE, tail flick test (rats [4]; D1, individual rats): 14.95 % MPE and 27.11 % MPE and 31.79 % MPE and 25.65 % MPE and 11.54 % MPE and 27.96 % MPE
% MPE, tail flick test, Average (rats [4]; D2): 22.55 % MPE
% MPE, tail flick test (rats [4]; D2, individual rats): 13.4 % MPE and 32.23 % MPE and 40.51 % MPE and 16.49 % MPE and 13.33 % MPE and 19.35 % MPE
% MPE, tail flick test, Average (rats [4]; D3): 19.97 % MPE
% MPE, tail flick test (rats [4]; D3, individual rats): 14.95 % MPE and 22.51 % MPE and 26.92 % MPE and 13.87 % MPE and 18.46 % MPE and 23.12 % MPE
% MPE, tail flick test, Average (rats [4]; D4): 10.7 % MPE
% MPE, tail flick test (rats [4]; D4, individual rats): 14.43 % MPE and 14.0665 % MPE and 7.949 % MPE and 5.236 % MPE and 12.5641 % MPE and 9.946 % MPE
% MPE, tail flick test, Average (rats [4]; D5): 8.394 % MPE
% MPE, tail flick test (rats [4]; D5, individual rats): 9.536 % MPE and 4.092 % MPE and 7.692 % MPE and 5.236 % MPE and 7.949 % MPE and 15.86 % MPE
% MPE, tail flick test, Average (rats [4]; D6): 5.511 % MPE
% MPE, tail flick test (rats [4]; D6, individual rats): 8.247 % MPE and 0.7673 % MPE and 7.949 % MPE and 8.115 % MPE and 7.179 % MPE and 0.8065 % MPE
duration of anesthesia/analgesia (rats [6]): at least 4 days
analgesia, paw withdrawal threshold (difference score) ([7]; dose doubled (4 rods/rat)): possible to achieve the analgesic effect
analgesia, paw withdrawal threshold (difference score) ([7]; first part, single dose (2 rods/rat)): insufficient to provide analgesia
